Calls of active or inactive are those of the source.
What was measured:
[1] = tested on: Streptococcus sp. 'group A'; assay: Streptococcus pyogenes SK(-)GAS viability under kanamycin – luminescence, BacTiterGlo, confirmation, counter-screen for streptokinase expression inhibitor project, dose response (AID 1900); assay type: functional, organism-based
Streptokinase A = target: T1, Streptokinase A (Streptococcus pyogenes serotype M1, UniProt P10520); assay: viability-normalized secreted streptokinase activity reduction – plasminogen activation absorbance, OD405, dose response (AID 1914); assay type: functional, Streptococcus pyogenes M1 GAS;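 note: secreted streptokinase activity via plasminogen activation per viability signal from cell pellet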
T1 sequence (P10520 whole entry): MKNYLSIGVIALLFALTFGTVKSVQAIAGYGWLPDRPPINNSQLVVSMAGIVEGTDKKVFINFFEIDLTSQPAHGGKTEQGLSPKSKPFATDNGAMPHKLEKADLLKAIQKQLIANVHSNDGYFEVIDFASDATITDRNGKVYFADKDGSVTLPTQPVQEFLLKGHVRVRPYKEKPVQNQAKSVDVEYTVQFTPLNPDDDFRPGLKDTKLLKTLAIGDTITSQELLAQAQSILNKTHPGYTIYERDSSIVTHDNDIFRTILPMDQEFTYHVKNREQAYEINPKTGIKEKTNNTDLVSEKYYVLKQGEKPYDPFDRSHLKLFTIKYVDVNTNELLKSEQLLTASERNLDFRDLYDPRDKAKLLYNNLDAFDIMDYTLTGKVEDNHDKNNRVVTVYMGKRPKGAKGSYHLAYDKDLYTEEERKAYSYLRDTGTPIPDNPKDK

Streptococcus = assay: GAS UMAA2166 growth inhibition – luminescence, BacTiterGlo, counter-screen for streptokinase expression inhibitor project, dose response (AID 1915); assay type: functional, organism-based;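 note: potency for reduction of bacterial viability or growth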
X-box-binding protein 1 = target: T2, X-box-binding protein 1 (Homo sapiens, UniProt P17861); assay type: functional, Cricetulus griseus;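 note: confirmatory dose-response counter-screen serving a CHOP assay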
T2 sequence (P17861 whole entry): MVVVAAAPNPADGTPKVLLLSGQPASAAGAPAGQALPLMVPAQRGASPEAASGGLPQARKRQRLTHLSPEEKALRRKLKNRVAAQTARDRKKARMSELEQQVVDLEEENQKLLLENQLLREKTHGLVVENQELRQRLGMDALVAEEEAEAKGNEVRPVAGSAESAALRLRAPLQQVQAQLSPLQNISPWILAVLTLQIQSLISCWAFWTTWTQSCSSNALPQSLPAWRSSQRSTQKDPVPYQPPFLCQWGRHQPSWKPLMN

[2] = target: T3, Tyrosine-protein phosphatase non-receptor type 7 (Homo sapiens, UniProt P35236); assay type: functional
T3 sequence (P35236 whole entry): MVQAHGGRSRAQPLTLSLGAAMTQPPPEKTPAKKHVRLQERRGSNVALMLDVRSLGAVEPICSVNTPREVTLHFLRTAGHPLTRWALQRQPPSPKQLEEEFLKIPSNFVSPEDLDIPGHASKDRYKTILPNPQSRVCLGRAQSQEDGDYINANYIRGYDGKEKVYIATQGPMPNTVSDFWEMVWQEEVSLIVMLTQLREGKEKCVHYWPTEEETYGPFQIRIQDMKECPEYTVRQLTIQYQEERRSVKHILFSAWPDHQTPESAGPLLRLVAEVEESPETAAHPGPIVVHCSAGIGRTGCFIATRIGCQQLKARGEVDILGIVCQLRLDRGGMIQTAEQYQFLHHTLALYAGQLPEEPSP

[3] = target: Glyceraldehyde-3-phosphate dehydrogenase (Homo sapiens, UniProt P04406)
[4] = target: T4, Dual specificity protein phosphatase 6 (Rattus norvegicus, UniProt Q64346)
T4 sequence (Q64346 whole entry): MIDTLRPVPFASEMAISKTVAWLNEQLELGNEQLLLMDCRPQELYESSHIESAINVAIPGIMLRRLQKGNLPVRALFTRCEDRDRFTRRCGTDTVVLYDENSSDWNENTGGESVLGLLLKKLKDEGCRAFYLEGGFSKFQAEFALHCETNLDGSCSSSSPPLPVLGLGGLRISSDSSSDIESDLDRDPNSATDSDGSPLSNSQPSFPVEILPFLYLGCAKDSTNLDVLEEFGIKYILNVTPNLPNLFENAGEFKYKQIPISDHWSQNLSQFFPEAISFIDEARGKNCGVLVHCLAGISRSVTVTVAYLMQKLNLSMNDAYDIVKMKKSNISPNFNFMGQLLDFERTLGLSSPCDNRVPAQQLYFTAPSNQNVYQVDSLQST

[5] = target: T4, Dual specificity protein phosphatase 6; assay type: functional
Saccharomyces cerevisiae = assay: S. cerevisiae Caspase-1/ASC signal blockers IC50, NALP1 inhibitor project selectivity test (AID 488863); assay type: functional, organism-based
[6] = target: T5, NACHT, LRR and PYD domains-containing protein 1 (Homo sapiens, UniProt Q9C000); assay: NALP1 inhibitors in yeast, dose response, luminescent (AID 488860); assay type: functional
T5 sequence (Q9C000 whole entry): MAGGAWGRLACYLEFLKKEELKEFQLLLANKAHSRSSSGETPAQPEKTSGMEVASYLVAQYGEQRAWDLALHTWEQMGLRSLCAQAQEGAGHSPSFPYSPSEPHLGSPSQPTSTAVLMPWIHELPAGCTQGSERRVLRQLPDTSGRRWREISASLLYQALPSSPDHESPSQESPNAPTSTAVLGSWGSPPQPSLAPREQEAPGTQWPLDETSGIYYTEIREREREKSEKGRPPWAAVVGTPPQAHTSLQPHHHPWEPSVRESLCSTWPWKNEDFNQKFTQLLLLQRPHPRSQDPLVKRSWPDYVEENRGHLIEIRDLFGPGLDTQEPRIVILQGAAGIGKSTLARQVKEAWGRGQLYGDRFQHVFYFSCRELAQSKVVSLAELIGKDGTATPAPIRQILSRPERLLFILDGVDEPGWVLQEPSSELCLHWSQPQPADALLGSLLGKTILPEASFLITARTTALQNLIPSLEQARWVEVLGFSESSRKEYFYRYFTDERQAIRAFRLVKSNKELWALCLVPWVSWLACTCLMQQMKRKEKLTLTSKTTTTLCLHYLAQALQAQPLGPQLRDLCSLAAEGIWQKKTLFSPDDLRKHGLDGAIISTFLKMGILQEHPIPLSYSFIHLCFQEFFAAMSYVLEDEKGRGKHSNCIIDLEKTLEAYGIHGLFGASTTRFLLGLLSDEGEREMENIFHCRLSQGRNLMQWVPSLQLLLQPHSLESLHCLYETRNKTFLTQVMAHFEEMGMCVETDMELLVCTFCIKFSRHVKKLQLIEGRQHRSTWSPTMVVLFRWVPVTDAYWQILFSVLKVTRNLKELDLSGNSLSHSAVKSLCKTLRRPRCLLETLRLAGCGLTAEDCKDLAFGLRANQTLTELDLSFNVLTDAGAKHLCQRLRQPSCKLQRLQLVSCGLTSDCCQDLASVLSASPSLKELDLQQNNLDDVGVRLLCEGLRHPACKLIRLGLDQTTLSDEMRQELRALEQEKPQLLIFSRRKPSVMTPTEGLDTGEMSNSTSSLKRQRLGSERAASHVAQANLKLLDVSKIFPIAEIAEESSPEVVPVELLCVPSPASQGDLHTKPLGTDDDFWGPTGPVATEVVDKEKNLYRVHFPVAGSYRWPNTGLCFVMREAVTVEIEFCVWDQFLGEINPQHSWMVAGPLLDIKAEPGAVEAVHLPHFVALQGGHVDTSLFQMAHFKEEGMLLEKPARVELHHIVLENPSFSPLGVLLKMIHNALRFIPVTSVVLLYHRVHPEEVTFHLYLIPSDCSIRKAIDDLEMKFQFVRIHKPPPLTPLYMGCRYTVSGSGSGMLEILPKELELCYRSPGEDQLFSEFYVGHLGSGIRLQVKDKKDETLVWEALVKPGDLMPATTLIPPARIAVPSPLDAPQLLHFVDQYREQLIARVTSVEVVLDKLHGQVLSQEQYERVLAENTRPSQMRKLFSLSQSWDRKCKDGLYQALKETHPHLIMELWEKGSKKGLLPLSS

[7] = A cytotoxicity screen of small molecule inhibitors of the PhoP region in Salmonella typhi identified in the primary screen. [Related pubchem assays: 1850, 1864, 1985 ]; assay type: functional
[8] = target: G-protein coupled receptor 55 (Homo sapiens, UniProt Q9Y2T6); assay: selective activators of receptor GPR55 – imaging, U2OS cells, beta-arrestin-GFP redistribution, primary screen (AID 1961); assay type: functional
[9] = target: T6, Replicative DNA helicase DnaB (Mycobacterium tuberculosis, UniProt P9WMR3); assay: DnaB intein splicing inhibitors, dose response, biochemical, cell-free fluorescence (AID 449749); assay type: functional
T6 sequence (P9WMR3 whole entry): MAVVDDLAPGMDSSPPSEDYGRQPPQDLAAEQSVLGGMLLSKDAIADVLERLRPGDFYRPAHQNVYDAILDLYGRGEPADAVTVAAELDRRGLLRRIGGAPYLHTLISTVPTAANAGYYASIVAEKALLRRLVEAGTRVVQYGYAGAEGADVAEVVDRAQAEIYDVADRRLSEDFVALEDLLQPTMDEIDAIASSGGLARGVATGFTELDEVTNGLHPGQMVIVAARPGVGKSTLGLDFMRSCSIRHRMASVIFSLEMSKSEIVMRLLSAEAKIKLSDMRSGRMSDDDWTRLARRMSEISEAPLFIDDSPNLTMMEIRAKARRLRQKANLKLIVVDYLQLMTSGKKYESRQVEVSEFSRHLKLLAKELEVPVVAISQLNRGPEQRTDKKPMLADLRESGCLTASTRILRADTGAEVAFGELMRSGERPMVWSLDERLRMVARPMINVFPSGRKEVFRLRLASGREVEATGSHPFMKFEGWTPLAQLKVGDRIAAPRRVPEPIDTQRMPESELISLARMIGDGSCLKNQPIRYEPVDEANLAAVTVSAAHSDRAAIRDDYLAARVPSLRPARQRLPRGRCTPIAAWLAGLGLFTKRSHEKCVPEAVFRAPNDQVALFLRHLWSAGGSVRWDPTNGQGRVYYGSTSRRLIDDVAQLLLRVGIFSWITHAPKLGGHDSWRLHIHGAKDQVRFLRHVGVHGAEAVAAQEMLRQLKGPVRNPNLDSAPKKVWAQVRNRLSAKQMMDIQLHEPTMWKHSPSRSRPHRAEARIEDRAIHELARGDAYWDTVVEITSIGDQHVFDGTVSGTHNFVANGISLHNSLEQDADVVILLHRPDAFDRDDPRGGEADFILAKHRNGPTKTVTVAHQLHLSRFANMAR

Protein RecA = target: T7, Protein RecA (Mycobacterium tuberculosis, UniProt P9WHJ3); assay: Fluorescence Cell-Free Homogeneous Dose Retest to Identify Inhibitors of RecA-Intein Splicing Activity. [Related pubchem assays (depositor defined):AID2097, AID2223, AID489010, AID492950]; assay type: functional
T7 sequence (P9WHJ3 whole entry): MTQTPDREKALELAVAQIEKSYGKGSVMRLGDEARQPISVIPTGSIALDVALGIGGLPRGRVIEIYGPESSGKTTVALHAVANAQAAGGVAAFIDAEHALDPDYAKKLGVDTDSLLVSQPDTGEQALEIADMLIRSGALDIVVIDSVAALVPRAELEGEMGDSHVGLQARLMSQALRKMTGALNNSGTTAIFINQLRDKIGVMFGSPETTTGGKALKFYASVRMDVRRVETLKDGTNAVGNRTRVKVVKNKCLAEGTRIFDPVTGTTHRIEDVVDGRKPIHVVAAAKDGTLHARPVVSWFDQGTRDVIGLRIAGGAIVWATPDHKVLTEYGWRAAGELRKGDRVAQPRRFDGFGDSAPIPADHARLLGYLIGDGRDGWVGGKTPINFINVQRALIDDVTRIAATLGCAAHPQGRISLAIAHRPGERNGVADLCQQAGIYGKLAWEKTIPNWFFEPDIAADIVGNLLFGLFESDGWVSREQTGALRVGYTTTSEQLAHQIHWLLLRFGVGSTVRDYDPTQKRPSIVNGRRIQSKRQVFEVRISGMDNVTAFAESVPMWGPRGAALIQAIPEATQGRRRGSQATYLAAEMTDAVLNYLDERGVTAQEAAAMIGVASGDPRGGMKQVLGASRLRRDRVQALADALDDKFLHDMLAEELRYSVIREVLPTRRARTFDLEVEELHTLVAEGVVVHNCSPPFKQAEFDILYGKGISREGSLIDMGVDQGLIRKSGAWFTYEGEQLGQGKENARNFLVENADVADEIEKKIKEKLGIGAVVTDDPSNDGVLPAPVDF

[10] = Trypanosoma cruzi growth suppression in host cells – NIH3T3 host cells, beta-gal luminescence, confirmation (AID 2044); assay type: functional, cell-based;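 note: intracellular parasites grown in NIH/3T3 mouse fibroblasts as host cells; luminescent beta-galactosidase reporter signal from transgenic T. cruzi replicating inside host cells; inhibitors lower the luminescence signal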
[11] = NIH3T3 cell viability loss – ATP luminescence, mouse fibroblasts, counter-screen, dose response (AID 2010); assay type: functional, cell-based;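 note: cells exposed to compound for about 90 hours before reading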

Sequence of G-protein coupled receptor 55 (Q9Y2T6 whole entry): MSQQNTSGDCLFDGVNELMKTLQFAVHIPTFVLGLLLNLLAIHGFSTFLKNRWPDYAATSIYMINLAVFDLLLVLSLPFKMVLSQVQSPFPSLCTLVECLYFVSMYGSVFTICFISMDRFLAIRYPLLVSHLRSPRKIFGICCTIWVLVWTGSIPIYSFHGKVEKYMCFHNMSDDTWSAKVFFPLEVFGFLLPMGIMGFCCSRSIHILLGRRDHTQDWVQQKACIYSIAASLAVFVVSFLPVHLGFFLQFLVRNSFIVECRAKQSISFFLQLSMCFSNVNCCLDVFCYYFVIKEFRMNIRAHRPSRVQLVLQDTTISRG
Sequence of Glyceraldehyde-3-phosphate dehydrogenase (P04406 whole entry): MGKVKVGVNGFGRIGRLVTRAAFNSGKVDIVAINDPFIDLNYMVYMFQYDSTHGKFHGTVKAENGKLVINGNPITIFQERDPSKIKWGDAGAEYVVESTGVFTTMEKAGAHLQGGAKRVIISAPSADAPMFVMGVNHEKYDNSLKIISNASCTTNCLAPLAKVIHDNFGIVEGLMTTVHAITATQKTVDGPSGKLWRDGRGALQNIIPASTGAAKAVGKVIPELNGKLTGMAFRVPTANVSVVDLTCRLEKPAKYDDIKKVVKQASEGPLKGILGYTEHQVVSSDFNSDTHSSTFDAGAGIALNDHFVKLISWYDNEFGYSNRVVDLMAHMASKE

## C=CCn1c(COc2ccccc2)nnc1SC(C)C(=O)N/N=C/c1cc(Cl)ccc1O (centres undefined)
[1]
  EC50: 2.77 µM (active)
Streptokinase A
  EC50: > 150 µM (not active)
Streptococcus
  EC50: 8.01 µM (active)
X-box-binding protein 1
  Absolute IC50 (XBP1): 10 µM

## Cc1cc(NC(=O)/C=C/c2cccs2)no1
[2]
  IC50: > 100 µM (not active)
[3]
  IC50: 62.6 µM (active)
[4]
  IC50: > 100 µM (inactive)
[5]
  IC50: > 100 µM (inactive)

## CCOc1ccccc1N1CCN(C(=O)CCCc2nc3ccccc3s2)CC1
Saccharomyces cerevisiae
  IC50: > 100 µM (inactive)
[6]
  IC50: 36.3 µM (active)

## Cc1cc(N=Nc2ccccc2)c(NCC(O)C(O)C(O)CO)cc1C (centres undefined)
[7]
  EC50: > 50 µM (active)

## COc1ccc(C=C(c2nc3ccccc3s2)c2nc3ccccc3s2)cc1O
[8]
  EC50: 3.05 µM (active)
[9]
  AC50: > 380 µM (inactive)
Protein RecA
  EC50: 7.08 µM (active)

## Cc1ccc(/C=C2\SC(=S)N(c3cccnc3)C2=O)o1
[7]
  EC50: > 50 µM (active)
[10]
  EC50: 2.36 µM (active)
[11]
  EC50: > 60 µM (not active)

## O=C(CSc1nnc(-c2cccnc2)n1Cc1ccco1)c1ccc2ccccc2c1
[7]
  EC50: > 50 µM (active)

## O=C(c1ccc2c(c1)N(Cc1ccccc1F)C(=O)c1ccccc1S2(=O)=O)N1CCCC1
[8]
  EC50: > 32 µM (inactive)

From ChEMBL document CHEMBL1201862, “PubChem BioAssay data set” (2004)
